Experiments:
[1] = test system: Nur77; experiment: Nur77 expression by Western blot in DO11.10 cells; conditions: after PMA treatment
Experimental: SDS-PAGE and Western blot analysis were performed according to standard procedures. Western blots were developed with the ECL detection kit (Amersham Pharmacia Biotech, Piscataway, N.J.).

[2] = test system: HDAC7 (Ser155, Ser318, Ser448 phosphorylation); experiment: HDAC7 phosphorylation by Western blot with antiphospho-HDAC7 antisera in DO11.10-HDAC7-Flag cells; assay type: cell-based, human
Experimental: DO11.10-HDAC7-Flag cells were untreated or treated with either PMA or anti CD3 antibody for the indicated times. Total cellular extracts were prepared in 20 mM Hepes (pH 7.5), 10 mM EGTA, 22.5 mM MgCl2, 1% NP-40, 2 mM orthovanadate, 1 mM dithiothreitol, and 0.5 mM phenyl-methyl sulfonyl fluoride supplemented with protease inhibitors, and subjected to Western blot analysis.
Antibodies against mouse HDAC7 phosphorylated at serine residues 178, 344 and 479 were generated (Sigma Genosys, INC., Houston Tex. 77216-1508, USA). Briefly, rabbits were immunized with KLH-conjugated peptides. The phosphopeptides used to generate the phosphor-specific antibodies were FPLRTV[pSer]EPNLKL for P-Ser178, RPLNRTR[pSer]EPLPPS for P-Ser344 and RPLSRTQ[pSer]SPAAPV for P-Ser479. [pSer] indicates the phosphate group on the conserved serine residues. HDAC7 phospho specific antibodies were purified from crude rabbit serum by double affinity purification with nonphosphorylated and phosphorylated peptide. The corresponding serine residues can be found in human HDAC7 at amino acid positions 155, 318, and 448, respectively.
Using these antisera, the state of phosphorylation of HDAC7 following PMA treatment was assessed. […] Phosphatase treatment of immunoprecipitated HDAC7 abolished the reactivity of the different phosphor-HDAC7 antibodies confirming their specificity for phosphorylated HDAC7 (FIG. 6A).
To test the possibility that HDAC7 became dephosphorylated by a phosphatase, cells were stimulated with PMA followed by the addition of okadaic acid, a phosphatase inhibitor, for the rest of the time course. Consistent with the hypothesis that HDAC7 is dephosphorylated by a phosphatase, okadaic acid treatment led to persistent phosphorylation of HDAC7 at each site up to 24 h (FIG. 6B).
To further probe the role of myosin phosphatase in the dephosphorylation of HDAC7 in vivo, small interfering RNAs (siRNAs) specific for PP1β and MYPT1 were introduced into DO11.10 cells expressing HDAC7. With an siRNA control (siCo), HDAC7 was transiently phosphorylated in response to PMA, with a peak at 2 h, and rapidly dephosphorylated thereafter (FIG. 11B, left panel). […] Further, HDAC7 remained phosphorylated up to 8 h after PMA stimulation (FIG. 11B, right panel).

[3] = test system: HDAC7-GFP; experiment: HDAC7-GFP subcellular localization by immunofluorescence microscopy in DO11.10 cells; assay type: cell-based
Experimental: DO11.10 cells (5×10^6) were nucleofected with an HDAC7-GFP expression vector together with either siRNA control or siRNAs for PP1β and MYPT1. Cells ([…]) were seeded onto poly-L-lysine-coated coverslips 12 h after nucleofection and allowed to attach for 12 h. Cells were stimulated with 10 ng/ml PMA. HDAC7 was localized by immunofluorescence microscopy with a confocal fluorescence microscope (Olympus BX60, Bio-Rad).
To determine whether the changes in HDAC7 phosphorylation affected the subcellular localization of the protein, the fate of an HDAC7-GFP fusion protein in response to PMA was followed. […] The subcellular localization of HDAC7 also closely paralleled serine 155, serine 318, and serine 448 phosphorylation. While resting cells […] nuclear exclusion of HDAC7, more than 75% of activated cells excluded HDAC7 from the nucleus at 2 hours after stimulation (FIG. 7A). However, this exclusion was transient and HDAC7 progressively returned to the nucleus over the next few hours (FIGS. 7A, 7B). Significant reimport of HDAC7-GFP into the nucleus occurred at 4 h after PMA treatment, a time course that paralleled HDAC7 dephosphorylation (FIGS. 7A, 7B). […] Phosphatases have been predicted to regulate the nucleo-cytoplasmic shuttling of other class IIa HDAC, such as HDAC4, 5, and 9 for some time but have not been identified so far. […]

| SMILES | time of peak Nur77 induction [1] | HDAC7 phosphorylation at each serine after treatment ([2]; DO11.10 stably expressing HDAC7-Flag, Western blot of immunoprecipitated HDAC7) | start of progressive decrease in HDAC7 phosphorylation after treatment ([2]; all three serine residues, total HDAC7 content unchanged) | time of maximum (full) HDAC7 phosphorylation after stimulation ([2]; time course, DO11.10-HDAC7-Flag cells) | percentage of cells excluding HDAC7 from the nucleus ([3]; 2 hours after stimulation) | percentage of cells showing nuclear exclusion of HDAC7 ([3]; 24 hours after stimulation) | time up to which HDAC7 remained phosphorylated after PMA stimulation ([2]; agent applied together with PMA stimulation, DO11.10-HDAC7-Flag cells) |
| --- | --- | --- | --- | --- | --- | --- | --- |
| CCCCCCCCCCCCCC(=O)O[C@@H]1[C@@H](C)[C@@]2(O)[C@@H](C=C(CO)C[C@]3(O)C(=O)C(C)=C[C@@H]23)[C@@H]2C(C)(C)[C@]12OC(C)=O [PMA] | 2 h | increased HDAC7 phosphorylation at each serine | 4 h | 1 to 2 h | more than 75% | < 20% |  |
| C=C1[C@@H](O)[C@@H]2O[C@]3(CC[C@H](/C=C/[C@@H](C)[C@@H]4CC(C)=C[C@@]5(O[C@H](C[C@@](C)(O)C(=O)O)CC[C@H]5O)O4)O3)CC[C@H]2O[C@@H]1[C@@H](O)C[C@H](C)[C@H]1O[C@@]2(CCCCO2)CC[C@H]1C [okadaic acid] |  |  |  |  |  |  | up to 24 h |
